Data on two substances can be found in patent publication US20250281629A1, “COMPOSITIONS AND METHODS FOR ANTI-PHOSPHOCHOLINE ACTIVE IMMUNOTHERAPY” (Duke University, priority 2022, published 2025).

Where no end group is shown, it is not given here. C11H22NO6P = phosphorylcholine group attached via 2-methacryloyloxyethyl phosphorylcholine A value given as a limit tells only on which side of the number the result lay.

Data set [1] can be described thus: Thioflavin T (ThT) assay for β-sheets. The conditions noted are these: peak fluorescence intensity around 488 nm. Type of data set: physicochemical. The procedure: Thioflavin T (ThT) Assay. β-sheets were detected by Thioflavin T (ThT) (Alfa Aesar, J61043) binding and resulting fluorescence. 180 μL of 0.05 mM ThT was added to 20 μL of 2 mM nanofibers in a 96-well black plate and allowed to incubate for 1 min. Fluorescence intensity was then determined using an excitation wavelength of 440 nm and emission wavelengths from 460-600 nm at 5 nm intervals. A peak fluorescence intensity at an emission wavelength around 488 nm is indicative of β-sheets.

For data set [2], the system named is mouse anti-PC IgM monoclonal antibody (Clone: BH8). Nature of the data set: ELISA for measuring nanofiber epitope reactivity. Type of data set: binding. The settings on record: nanofibers coated at 0.2 mM; PC-BSA positive control. The procedure:
ELISA for Measuring Nanofiber Epitope Reactivity. The reactivity of PC conjugation methods was determined via binding of a mouse anti-PC IgM monoclonal antibody (Clone: BH8) (Sigma, MABF2084) to nanofibers. Nanofibers were diluted to 0.2 mM and coated onto 96-well plates at 4° C. overnight. PC-BSA (Biosearch Technologies, PC-1011-10) was coated at 20 μg/mL in 1×PBS overnight as a positive control, and PBS was used as a negative control. The next day, the plates were washed using 1×PBS with 0.05% Tween 20 (1×PBST) and then blocked with Superblock blocking buffer solution (Thermo Fisher, 37515) three times. This was followed by the addition anti-PC IgM which was serially diluted in 1% BSA in 1×PBST by 5-fold steps beginning from 1:100 (5 μg/mL) and allowed to incubate for 2 h at room temperature. Anti-PC IgM bound to nanofibers was then detected with HRP-conjugated goat anti-mouse IgM (Southern Biotech, 1021-05) and the absorbance values at 450 nm were measured.
(ELISA stands for enzyme-linked immunosorbent assay.)

The subject of another data set is C57BL/6 mice. Nature of the data set: Serum anti-PC antibody responses of immunized mice via ELISA (PC-BSA coated). Type of data set: in vivo, mouse. The procedure:
Mice and Immunizations. Female C57BL/6 mice (Envigo) age 6-10 weeks were used to initiate experiments except for the Il10^−/− colitis study where female B6.129P2-Il10^tm1Cgn/J (The Jackson Laboratory) mice age 5-7 weeks were used. While female mice were used for most experiments, age-matched male C57BL/6 mice (Envigo) were used in a one cycle acute DSS colitis model to confirm efficacy across sexes. Mice were housed at Duke University. All experimental procedures were performed on protocols (A264-18-11 and A199-21-09) approved by the Duke University Institutional Animal Care and Use Committee (IACUC). For subcutaneous immunizations, anesthetized mice were injected once behind each shoulder with 50 μL of 2 mM peptide nanofiber solution or 1×PBS. For intraperitoneal immunizations, mice were injected with 100 μL of 2 mM peptide nanofiber solution or 1×PBS. Nanofiber immunizations with adjuvant contained 10 μg CpG (ODN 1826, IAX-200-002-3001, Innaxon). For injections of only CpG, 10 μg of CpG in 100 μL 1×PBS was used. Mice were typically given three immunizations, with the specific boosting schedules stated in each figure caption, usually at weeks 0, 2, and 4, as this was determined to produce robust antibody responses in a short time frame.
Detection of Anti-PC Antibody Responses via ELISA. Anti-PC antibody responses in serum collected from the submandibular vein in mice were measured using ELISA. Briefly, plates were coated with 20 μg/mL PC-BSA (Biosearch Technologies, PC-1011-10) in 1×PBS or just 1×PBS at 4° C. overnight. The next day, the plates were washed using 1×PBST (1×PBS with 0.05% Tween 20) and then blocked three times with Superblock blocking buffer solution (Thermo Fisher, 37515). Serum diluted from 1:10^2 to 1:10^5 in 1% BSA in 1×PBST was the added to the plate and allowed to incubate for 2 h at room temperature. Anti-PC IgG was detected using HRP-conjugated Fcγ fragment-specific goat anti-mouse IgG (Jackson Immuno Research, 15-035-071). IgG subclasses and IgM anti-PC antibodies were detected using Southern Biotech HRP-conjugated goat anti-mouse antibodies (IgG1, IgG2b, IgG2c, IgG3, & IgM: 5300-05B). Area under the curve (AUC) measurements were calculated using background-subtracted absorbance values at dilutions from 1:10^2 to 1:10^5. Antibody titers were defined using an absorbance cutoff above background of 0.2 OD, where titer 2 represents an OD value greater than 0.2 at 1:10^2 dilution and so on up to titer 5 at 1:10^5 dilution.

In a further data set the test system is B1a cells (CD19+CD5+). In words: Nanofiber uptake in i.p. lavage cells, flow cytometry: B1a cells. Type of data set: in vivo, mouse. The procedure: (§1) Nanofiber Uptake and Evaluation. The cell types present and their propensity to uptake nanofibers in the i.p. space was tested by injecting mice i.p. with 100 μL of 2 mM TAMRA-labeled fluorescent nanofibers. 4 hours later, mice were euthanized and i.p. lavage was conducted via the injection of 2 mL of cold 1×PBS into the peritoneal cavity and massaging the abdomen for 30 seconds. The solution was then carefully extracted from the i.p. space and the cells were isolated followed by rinsing with ice cold flow buffer (2% heat-inactivated FBS in 1×PBS). The cells present were treated with mouse BD Fc Block (Clone: 2.4G2) (BD Biosciences, 553142) in flow buffer on ice for 30 min and then washed and stained with antibodies against the following markers: CD5-APC (Clone: 53-7.3) (BioLegend, 100626), F4/80-PerCP/Cy5.5 (Clone: BM8) (BioLegend, 123128), CD19-APC/Cy7 (Clone: 6D5) (BioLegend, 115530), CD11c-PE/Cy7 (Clone: N418) (BioLegend, 117318), and CD86-BV605 (Clone: GL1) (BD Biosciences, 2272591) in flow buffer for 30 min on ice. TAMRA-fluorescence as an indication of nanofiber uptake was measured on the PE channel. Cells were then washed in flow buffer and stained with DAPI. Flow cytometry was conducted on a BD FACSCanto II cytometer and the results were analyzed using FlowJo software.
(In general: In flow cytometry, cells or beads pass a laser one at a time.)

The subject of data set [3] is non-B1a B cells (CD19+CD5−). Nature of the data set: Nanofiber uptake in i.p. lavage cells, flow cytometry: non-B1a B cells. Type of data set: in vivo, mouse. The conditions noted are these: for non-B1a B cells that acquired nanofibers: 4 hours after i.p. injection of TAMRA-labeled nanofibers. The procedure: as §1
Data set [4] has as its system dendritic cells (F4/80−CD11c+). Nature of the data set: Nanofiber uptake in i.p. lavage cells, flow cytometry: dendritic cells. The settings on record: 4 hours after i.p. injection of TAMRA-labeled nanofibers. Type of data set: in vivo, mouse. The procedure: as §1
For the next data set, the system named is macrophages (F4/80+). Nature of the data set: Nanofiber uptake in i.p. lavage cells, flow cytometry: macrophages. The settings on record: 4 hours after i.p. injection of TAMRA-labeled nanofibers. Type of data set: in vivo, mouse. The procedure:
as §1

Setting [5] is: total TAMRA+ cells categorized by cell type.

With “(C11H22NO6P)n-CCCCSGSG-QQKFQFQFEQQ-NH2 (CCCCSGSGQQKFQFQFEQQ-NH2; not fully specified; cysteine pairing not given here; also: phosphorylcholine groups (C11H22NO6P) n=1-4, attachment not placed) [PCM-Q11, linear multi-PC conjugate]”, the “thioflavin-T binding (β-sheet fibrillar structure)” value in data set [1] was “bound thioflavin-T (ThT)”. The “binding of anti-PC mAb to nanofibers” value in data set [2] was “increased binding of an anti-PC mAb compared to PC-Q11 nanofibers and PC-BSA”. Besides, the “anti-PC antibody levels on increasing epitope content 2.5 times” value in the data set with C57BL/6 mice (0.5 mM (25%) vs 0.2 mM (10%) PCM-Q11, i.p. with CpG) is on record as “no significant change in the response elicited”. Further, the “anti-PC IgG responses, PCM-Q11 vs PC-Q11” value with C57BL/6 mice (i.p., weeks 0, 2, 4, both coassembled with PADRE-Q11) is recorded as “significantly greater than i.p. immunization with PC-Q11”. Also, in the data set on B1a cells (CD19+CD5+) (4 hours after i.p. injection), the “CD86 activation marker on TAMRA+ B1a cells vs non-B1a cells” value is on record as “selective elevation on B1a cells” and the “TAMRA MFI of B1a cells” value is reported as “selective uptake”. For the same substance, the “B1a cells stained positively for nanofibers” value in the data set on B1a cells (CD19+CD5+) (4 hours after i.p. injection of TAMRA-labeled nanofibers) is “about 75%”. For the same substance, the “B1a cells among total TAMRA+ cells” value in the data set on B1a cells (CD19+CD5+) (setting [5]) was “acquired by a substantial B1a cell population”. In addition, in data set [3], the “non-B1a B cells that acquired nanofibers” value is listed as less than 30%. The “non-B1a B cells in the peritoneal cavity (total cells)” value in data set [3] (compared with PC-Q11, Q11, or PBS alone) is recorded as “reduction in non-B1a B cells”. Besides, the “DCs that acquired nanofibers” value in data set [4] is reported as less than 30%. Further, in the data set with macrophages (F4/80+), the “macrophages staining positively for nanofibers” value is “almost all macrophages staining positively for nanofibers”.

In the case of “C11H22NO6P-CSGSG-QQKFQFQFEQQ-NH2 (C(C11H22NO6P)SGSGQQKFQFQFEQQ-NH2) [PC-Q11, phosphodiester PC-Q11]”, in data set [1], the “thioflavin-T binding (β-sheet fibrillar structure)” value was “bound thioflavin-T (ThT)”. In addition, the “binding of anti-PC mAb to nanofibers” value in data set [2] is “bound”. In the data set on C57BL/6 mice (s.c. or i.p., weeks 0, 3, 11, with PADRE-Q11, PC-Q11 vs pa-PC-Q11), the “antibody response against PC-BSA (serum total anti-PC IgG)” value is on record as “significantly greater antibody response”. Moreover, the “CD86 activation marker on TAMRA+ B1a cells vs non-B1a cells” value in the data set with B1a cells (CD19+CD5+) (4 hours after i.p. injection) is recorded as “not seen”. The “TAMRA MFI of non-B1a B cells” value in data set [3] (4 hours after i.p. injection) is “selective uptake”. Besides, the “non-B1a B cells that acquired nanofibers” value in data set [3] is on record as “over 80%”. For the same substance, the “non-B1a B cells among total TAMRA+ cells” value in data set [3] (setting [5]) was “acquired primarily by non-B1a B cells”. The “DCs that acquired nanofibers” value in data set [4] is “about 67%”. Moreover, the “macrophages staining positively for nanofibers” value with macrophages (F4/80+) is on record as “almost all macrophages staining positively for nanofibers”.
